Columns and labels:
Bax = molecular target: T1, Bax (Homo sapiens, UniProt Q07812); experiment: Inhibition of Bax-induced apoptosis after pEGFP-Bax transfection; format: cell-based; details: 200 μM peptide 3 h before pEGFP-Bax plasmid transfection, apoptosis assayed 24 h after transfection, triplicate samples, P < 0.01
T1 construct: expressed in transfected cells; host or cells: HeLa cells
Protocol: Figure 3 Protection of cells from apoptosis by VPTLK. a-d. Proteoglycan is not required for VPTLK cell entry. Microscopic analysis of cell entry of Fam-VPTLK in Chinese Hamster Ovary (CHO) A745 cells lacking proteoglycans in the plasma membrane (a) and CHO K1 cells that express proteoglycans (b). CHO A745 and K1 cells were incubated with Fam-VPTLK (200 μM) for 3 h at 37 °C. […] Apoptosis was determined by using Hoechst dye nuclear staining. Each bar represents the mean of triplicate samples and standard error, and statistical significance was determined by an unpaired student t test; “ns”: not significant, *P < 0.05, and **P < 0.01. e. […] Jurkat cells were pre-incubated with VPTLK 200 μM for 3 h prior to STS treatment (100 nM, 3 or 6 h). Apoptosis was determined by Hoechst dye nuclear staining. Each bar represents the mean of triplicate samples and standard error, and statistical significance was determined by an unpaired student t test: **P < 0.01. f. […] Apoptosis was determined by Hoechst dye nuclear staining. […]
To induce Bax-mediated apoptosis in HeLa cells, cells were transfected with pEGFP-Bax (1 µg) and apoptosis was determined 24 h after the transfection. […] To detect apoptosis, cells were stained with Hoechst 33258 dye, and the numbers of cells with apoptotic nuclei were counted using fluorescence microscopy. Three-hundred cells were analyzed in triplicate samples. […]

DAMI cells = experiment: Cell-penetration activity of Fam-labeled CPP5s, cellular fluorescence by FACS and/or microscopy; format: cell-based, human; details: peptides Fam-labeled on the N-terminus, 200 μM, 3 h, 37 °C, fluorescence intensity of cells by FACS, mean of triplicate samples
Protocol: Figure 1 Cell-penetration activity of CPP5s. a. List of cell-penetrating penta-peptides (CPP5s). […] Peptide sequences are color-coded to show the constant amphipathic amino acid arrangement in each CPP5. Cell-penetration activity was determined by fluorescence intensity of cells (DAMI cells: a human megakaryocytic cancer cell line) incubated with fluorescein (Fam)-labeled peptides (200 μM) for 3 h at 37 °C as described in Experimental Procedures. Fam was labeled on the N-terminus of all peptides examined. Cells were analyzed by FACS and/or microscopy. The activity of each peptide is shown as a percentage of the activity of KLPVM. Each value represents the mean of triplicate samples. Cell entry of some peptides was confirmed by microscopy only, and these peptides are indicated with a ‘+’ without a percentage value. For cytoprotective activity (right column), the information is based on previous studies and the activity was determined by the protection of cells from Bax overexpression and other apoptotic stimuli such as etoposide treatment. b to e. Cell entry of Fam-labeled VPTLK, KLPVM, TAT, and poly-arginine (R8). HeLa cells were incubated with Fam-labeled VPTLK, KLPVM (200 μM), Fam-TAT (10 μM), and Fam-R8 (10 μM) for 1 h at 37 °C. Images are at 20× magnification. f. Comparison of the cytotoxicity of CPP5 and TAT. Primary cultured mouse embryonic fibroblast (MEF) cells were treated with various concentrations of peptides for 24 h as indicated. Then, apoptosis was analyzed as described in Experimental Procedures. Each bar represents the mean of triplicate samples and standard error. TEXT PRINTED IN THE PICTURE: (a) VPMLK: Cell Penetration (%): 97 ± 4.3; Cytoprotection: + | (a) VPTLK: Cell Penetration (%): 61 ± 1.7; Cytoprotection: + | (a) VPALR: Cell Penetration (%): 79 ± 1.5; Cytoprotection: + | (a) VSALK: Cell Penetration (%): 90 ± 3; Cytoprotection: N.D. | (a) PMLKE: Cell Penetration (%): 65 ± 3.7; Cytoprotection: + | (a) VPALK: Cell Penetration (%): 71 ± 2.2; Cytoprotection: + | (a) VSLKK: Cell Penetration (%): +; Cytoprotection: - | (a) VSGKK: Cell Penetration (%): +; Cytoprotection: - | (a) KLPVM: Cell Penetration (%): 100 ± 2.3; Cytoprotection: - | (a) IPMIK: Cell Penetration (%): 47 ± 1.4; Cytoprotection: - | (a) KLGVM: Cell Penetration (%): +; Cytoprotection: - | (a) KLPVT: Cell Penetration (%): +; Cytoprotection: - | (a) VPMIK: Cell Penetration (%): +; Cytoprotection: N.D. | (a) IPALK: Cell Penetration (%): +; Cytoprotection: N.D. | (a) IPMLK: Cell Penetration (%): +; Cytoprotection: N.D. | (a) VPTLQ: Cell Penetration (%): 70 ± 4; Cytoprotection: - | (a) QLPVM: Cell Penetration (%): +; Cytoprotection: - | (a) ELPVM: Cell Penetration (%): +; Cytoprotection: - | (a) VPTLE: Cell Penetration (%): 80 ± 1.9; Cytoprotection: N.D.
CPP5s that were designed based on the Bax-binding domain of Ku70 of several species are named Bax-Inhibiting Peptides (BIPs); they are VPMLK, PMLKE, VPTLK, VPALR, and VPALK. VPMLK and PMLKE were designed from human Ku70, and the same sequence exists in the Ku70 homologues of dog and monkey. VPTLK and VPALR are based on mouse and rat Ku70, respectively. VPALK was designed from cattle Ku70, and the same sequence exists in Ku70 of the African clawed frog. Cytoprotective activities of these BIPs have been previously reported, both in cell culture and animal models. […] The observed variation in cell-entering activity of Fam-labeled-CPP5s is shown in Figure 1a as a percentage of the activity of KLPVM. In all cases, Fam was attached to the N-terminal amino acid. For some CPP5s, cell-penetration activity was confirmed by detection of an intracellular fluorescent signal by microscopy. These latter results are indicated with ‘+’ symbols, and a quantitative comparison with the activity of KLPVM was not performed. […]

T1 sequence (Q07812 whole entry, species assumed): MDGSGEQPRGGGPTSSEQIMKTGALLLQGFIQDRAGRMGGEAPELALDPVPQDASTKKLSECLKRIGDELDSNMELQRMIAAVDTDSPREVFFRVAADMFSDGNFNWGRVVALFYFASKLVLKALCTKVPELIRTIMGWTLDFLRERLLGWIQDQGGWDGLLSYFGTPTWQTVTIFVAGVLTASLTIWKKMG

Substance: VPTLK
- Inhibition of Bax-induced apoptosis, HeLa (Bax): inhibited Bax-induced apoptosis in HeLa cells
- Cell Penetration (%), percentage of the activity of KLPVM (DAMI cells): 61 ± 1.7%

— article PMC3045100, “Cell-Penetrating Penta-Peptides (CPP5s): Measurement of Cell Entry and Protein-Transduction Activity” (Pharmaceuticals, 2010)
